Columns and labels:
Rasen = assay: Effect on grass/lawn, vegetation test in Mitscherlich pots (Beispiel B); format: in vivo; conditions: for 1. Schnitt Pflanzenhöhe relativ / 1. Schnitt Pflanzenhöhe cm: 20 days after treatment; for 1. Schnitt Pflanzenhöhe relativ / 2. Schnitt Pflanzenhöhe relativ: untreated control = 100; for 2. Schnitt Pflanzenhöhe cm: regrowth over 4 weeks after 1st cut (after-effect); for 2. Schnitt Pflanzenhöhe relativ: regrowth over 4 weeks after 1st cut; for 1. Schnitt Pflanzenhöhe cm: sprayed at 4 cm height
From the text: In einem Vegetationsversuch in Mitscherlichgefäßen wurde auf einem lehmigen Sandboden Rasen der folgenden Standard--Mischung angesät: Agrostis tenuis 10 %, Cynosurus cristatus 10 %, Festuca rubra 15 %, Lolium perenne 35 % und Poa pratensis 30 %. Die Düngung wurde mit 1,5 g N als Ammonnitrat und 1 ^g P205 als sec. Kaliumphosphat vorgenommen. Nach 2 vorangegangenen Schnitten wurden die Wirkstoffe in verschiedenen Aufwandmengen bei einer Wuchshöhe von 4 cm in üblicher Weise gespritzt. 20 Tage nach der Behandlung wurde die Wuchshöhe bestimmt; nach erfolgtem 1. Schnitt wurde der Wiederaufwuchs über 4 Wochen bis hin zum 2. Schnitt beobachtet und ebenfalls Längenmessungen durchgeführt, um die Nachwirkung zu überprüfen. Gegenüber der Kontrolle reagierten die Pflanzen aus den Behandlungsreihen mit sehr starken Kürzungen. Die Nachwirkung ist besser zu beurteilen als bei der zum Vergleich herangezogenen bekannten Substanz, wie nachstehende Tabelle zeigt.

Sommerweizen (Kolibri) = assay: Growth height reduction in cereals, greenhouse, foliar spray (Beispiel A); format: in vivo, Weizen (Kolibri); conditions: 18 days growth; for Pflanzenhöhe cm: sprayed at 10 cm plant height, 100 plants measured; for Pflanzenhöhe relativ: untreated control = 100
From the text: (§1) Im Gewächshaus wurden die Getreidearten Weizen (Kolibri) und Gerste (Union) in Kunststoffschalen von 11,5 cm Durch- messer in Torfkultursubstrat, welches ausreichend mit Nährstoffen versorgt war, eingesät. Die Wirkstoffe wurden in unterschiedlichen Aufwandmengen über das Blatt zugeführt. Die Applikation erfolgte bei einer Wuchshöhe der Pflanzen von 10 cm in üblicher Weise durch Spritzen.
(§2) Während der Wachstumszeit von 18 Tagen zeigten die behandelten Pflanzen gegenüber der unbehandelten Kontrolle ein deutlich geringeres Längenwachstum, was durch die abschließenden Längenmessungen bestätigt werden konnte. Hierbei wurden von jeder Behandlungsreihe 100 Pflanzen gemessen.

Sommergerste (Union) = assay: as above; format: in vivo, Gerste (Union); conditions: for Pflanzenhöhe cm: sprayed at 10 cm plant height, 18 days growth; for Pflanzenhöhe relativ: untreated control = 100
From the text: as §1, §2

Structure (SMILES) | 1. Schnitt Pflanzenhöhe relativ (Rasen; Aufwandmenge 0,5 kg/ha) | 2. Schnitt Pflanzenhöhe cm (Rasen; Aufwandmenge 0,5 kg/ha) | 2. Schnitt Pflanzenhöhe relativ (Rasen; Aufwandmenge 0,5 kg/ha) | 1. Schnitt Pflanzenhöhe cm (Rasen; Aufwandmenge 0,5 kg/ha) | 1. Schnitt Pflanzenhöhe relativ (Rasen; Aufwandmenge 0,75 kg/ha) | 2. Schnitt Pflanzenhöhe cm (Rasen; Aufwandmenge 0,75 kg/ha) | 2. Schnitt Pflanzenhöhe relativ (Rasen; Aufwandmenge 0,75 kg/ha) | 1. Schnitt Pflanzenhöhe cm (Rasen; Aufwandmenge 0,75 kg/ha) | Pflanzenhöhe cm (Sommerweizen (Kolibri); Aufwandmenge 1,5 kg/ha) | Pflanzenhöhe relativ (Sommerweizen (Kolibri); Aufwandmenge 1,5 kg/ha) | Pflanzenhöhe cm (Sommerweizen (Kolibri); Aufwandmenge 6,0 kg/ha) | Pflanzenhöhe relativ (Sommerweizen (Kolibri); Aufwandmenge 6,0 kg/ha) | Pflanzenhöhe cm (Sommergerste (Union); Aufwandmenge 0,25 kg/ha) | Pflanzenhöhe relativ (Sommergerste (Union); Aufwandmenge 0,25 kg/ha) | Pflanzenhöhe cm (Sommergerste (Union); Aufwandmenge 0,75 kg/ha) | Pflanzenhöhe relativ (Sommergerste (Union); Aufwandmenge 0,75 kg/ha) | Pflanzenhöhe cm (Sommergerste (Union); Aufwandmenge 1,50 kg/ha) | Pflanzenhöhe relativ (Sommergerste (Union); Aufwandmenge 1,50 kg/ha) | Pflanzenhöhe cm (Sommergerste (Union); Aufwandmenge 3,00 kg/ha) | Pflanzenhöhe relativ (Sommergerste (Union); Aufwandmenge 3,00 kg/ha)
CC(=O)Nc1cc(N(C#N)S(=O)(=O)C(F)(F)F)c(C)cc1C [Beispiel 1, 5-Acetamido-N -cyano-2,4-dimethyl-trifluormethansulfonsäureanilid] | 38,5 | 8,0 cm | 72,7 | 5,5 cm | 31,5 | 7,0 cm | 63,6 | 4,5 cm | 13,0 cm | 48,5 | 12,6 cm | 46,6 | – | – | – | – | – | – | – | –
CC(=O)Nc1ccc(C)c(N(C#N)S(=O)(=O)C(F)(F)F)c1 [Beispiel 67] | 97,4 | 11,0 cm | 100 | 14,0 cm | 87,4 | 9,0 cm | 81,8 | 12,5 cm | 13,5 cm | 50,4 | 12,0 cm | 44,8 | – | – | – | – | – | – | – | –
CC(=O)Nc1ccc(C)c(NS(=O)(=O)C(F)(F)F)c1 [Fluoridamid, 5-Acetam.ido-2-methyl-trifluormethansulfonsäureanilid, reference compound] | 94,4 | 11,0 cm | 100 | 13,5 cm | 87,4 | 10,0 cm | 90,9 | 12,5 cm | 17,0 cm | 63,4 | 15,0 cm | 56,0 | – | – | – | – | – | – | – | –
CC(=O)Nc1cc(NS(=O)(=O)C(F)(F)F)c(C)cc1C [Mefluidide, 5-Acetamido-2,4--dimethyl-trifluormethansulfonsäureanilid] | – | – | – | – | – | – | – | – | – | – | – | – | 27,0 cm | 96,4 | 18,0 cm | 64,3 | 17,5 cm | 62,5 | 16,0 cm | 57,1
